For 1 compound, Activity results are on record in ChEMBL document CHEMBL1144126, “A new insecticidal pyranocyclohexenedione from kunzea ericifolia” (1999).

The test system of this assay is Phaedon cochleariae. Put plainly: Insecticidal activity against mustard beetles at 10 ug after 24 to 48 hrs. The assay is classed as functional.

Structures are written as SMILES.

`CC(C)C[C@@H]1C2=C(O[C@@H](C3=C(O)C(C)(C)C(=O)C(C)(C)C3=O)[C@H]1C(C)C)C(C)(C)C(=O)C(C)(C)C2=O` [ERICIFOLIONE] gave an Activity of 97%.
